Laboratory results as given in patent US20060110474A1, “Rubrofusarin glycoside-containing composition” (Suntory Limited, priority 2002, published 2006).
“Also recorded” adds a separate entry of the source.

What was measured:
Format in all cases: cell-based
[1] = tested on: human hepatoma HepG2 cells; experiment: Cytotoxicity seen in the in-vitro HepG2 cell evaluation system; conditions: HepG2, 48 hours, up to 20 μM, compared with β-naphthoflavone
Protocol: Using human hepatoma HepG2 cells, time-dependent induction effect of rubrofusarin glycoside upon intracellular glutathione level was investigated. The procedure was similar to that of Example 1. Briefly, HepG2 cells were dispensed at a density of 2.5×10^4 cells (100 μl) per well of a microplate and allowed to settle thereto, and then, 25 μl of an evaluation sample diluted to a predetermined concentration in RPMI1640 medium was added. The cells were cultured for 0, 6, 12, 24, and 48 hours. As the evaluation sample, use was made of the concentrate (containing 10.2% (w/w) rubrofusarin gentiobioside) of the present invention prepared in accordance with the method shown in Example 4. […]
(§1) Using human hepatoma HepG2 cells, dose dependency of the effect of rubrofusarin glycoside upon intracellular glutathione level was investigated. […] After culturing for an additional 48 hours, the intracellular glutathione level was measured to be compared with that of the cells containing no test-compound or that of the cells containing comparative compound, β-naphthoflavone (purchased from Nacalai-tesque) or silibinin (purchased from Sigma Chemical). […]

[2] = tested on: human hepatoma HepG2 cells; experiment: Intracellular glutathione level of HepG2 cells (monochlorobimane fluorescence)
Protocol: (§2) The activity to increase intracellular glutathione level was determined by use of human hepatoma HepG2 cells. More specifically, HepG2 cells were cultured in RPMI1640 medium and added to a 96-well microplate at a density of 2.5×10^4 cells (100 μl) per well. After the HepG2 cells settled on the wall, 25 μl of each of the aforementioned samples was added and the mixture was cultured in a CO2 incubator for 48 hours. Thereafter, a culture solution was removed and the cells were washed once with phosphate buffered saline (PBS), 25 μl of a PBS solution containing 0.25 mM monochlorobimane was added and the mixture was allowed to stand in the CO2 incubator (37° C.) for 45 minutes. After the mixture was returned to room temperature, 75 μl of distilled water was added to the mixture to disperse it. The fluorescent intensity of the fluorescent substance produced by the reaction between Monochlorobimane and glutathione was measured at 355 nm/460 nm to observe a change in intracellular glutathione content.
Using human hepatoma HepG2 cells, time-dependent induction effect of rubrofusarin glycoside upon intracellular glutathione level was investigated. The procedure was similar to that of Example 1. Briefly, HepG2 cells were dispensed at a density of 2.5×10^4 cells (100 μl) per well of a microplate and allowed to settle thereto, and then, 25 μl of an evaluation sample diluted to a predetermined concentration in RPMI1640 medium was added. The cells were cultured for 0, 6, 12, 24, and 48 hours. […]
as §1

[3] = tested on: human hepatoma HepG2 cells; experiment: Protective effect against t-butyl hydroperoxide (rate of surviving cells, WST-1 staining); conditions: HepG2, 10 μM in terms of rubrofusarin gentiobioside for 48 hours, then t-BHP 0 to 1 mM for 3 hours; β-naphthoflavone 6 μM; FIG. 3
Protocol: The method was similar to that in Example 5. Briefly, HepG2 cells were dispensed at a density of 2.5×10^4 cells (100 μl) per well of a microplate and allowed to settle thereto, and then, 25 μl of the concentrate diluted in RPMI1640 medium to a final concentration of 10 μM in terms of rubrofusarin gentiobioside was added. After culturing was performed for a further 48 hours, a peroxide, t-butyl hydroperoxide (t-BHP) was added so as to give a final concentration of 0 to 1 mM. The rate of surviving cells after 3 hours relative to that of the cells containing no test compound was compared with those containing comparative compounds, β-naphthoflavone (6 μM) and silibinin (10 μM). The rate of surviving cells was checked by WST-1 staining and calculated based on a control not containing t-BHP as being 100%.

[4] = tested on: human hepatoma HepG2 cells; experiment: Synergistic effect with precursor L-cystine on intracellular glutathione level (L-cystine free D-MEM); conditions: 40 hours, FIG. 4
Protocol: as §2
Using human hepatoma HepG2 cells, the synergistic effect between rubrofusarin glycoside having the intracellular glutathione increasing activity and a precursor for synthesizing glutathione in vivo was investigated. […] Thereafter, intracellular glutathione levels were measured. […]

Row | SMILES | cytotoxicity in a high-concentration range [1] | activity to increase intracellular glutathione level (HPLC fraction) ([2]; HepG2, 48 hours culture, serial two-fold dilution, 4 dilution stages) | glutathione increasing activity, dose dependency ([2]; HepG2, 48 hours, final concentration 0 to 20 μM in terms of rubrofusarin gentiobioside, FIG. 2) | intracellular glutathione level, time course ([2]; HepG2, 0, 6, 12, 24, 48 hours, 1.25, 2.5, 5.0 μM in terms of rubrofusarin gentiobioside, relative to negative control = 100%, FIG. 1) | protective effect against t-BHP (rate of surviving cells) [3] | intracellular glutathione level in co-existence of L-cystine ([4]; 10 μM rubrofusarin glycoside plus L-cystine) | intracellular glutathione level with L-cystine alone ([4]; L-cystine at predetermined concentrations)
1 | COc1cc(O[C@@H]2O[C@H](CO[C@@H]3O[C@H](CO)[C@@H](O)[C@H](O)[C@H]3O)[C@@H](O)[C@H](O)[C@H]2O)c2c(O)c3c(=O)cc(C)oc3cc2c1 [rubrofusarin glycoside, rubrofusarin 6-O-β-gentiobioside] | lower | dose dependent and strong | increases in a dose-dependent manner; also recorded: equivalent to that of β-naphthoflavone | increases in a time-dependent manner | protecting HepG2 cells; also recorded: somewhat lower than that of β-naphthoflavone | synergistically contribute to an increase; also recorded: acted synergistically | –
2 | N[C@@H](CSSC[C@H](N)C(=O)O)C(=O)O [L-cystine] | – | – | – | – | – | – | increased as the concentration of L-cystine added increased
